Measured values from patent US20110319451A1, “5-Ht6 Receptor and Modulators Thereof for the Treatment of Insulin-Related Disorders” (priority 2008, published 2011).

Experiments:
C57/Bl6 mice = assay: oral glucose tolerance test (oGTT) in C57/Bl6 mice; assay type: in vivo, mouse; conditions: 1, 3.3 or 10 mpk oral, 30 min before glucose bolus 3 gram/kg, FIG. 5
Protocol: (§1) Thirty minutes later, a glucose bolus (3 gram/kg) was then delivered per orally. Plasma glucose levels were determined at indicated time points over a two hour period using blood (˜5 μl) collected from tail nick and a glucose meter. Glycemic excursion curve was graphed based on data from 6 mice and given in mean values +/−SEM (FIG. 5 upper left panel).

C57bl/6 male mice [1] = assay: insulin release in response to a glucose bolus in mice; assay type: in vivo, mouse; conditions: 10 mpk oral; 5, 10 and 20 minutes after glucose bolus 3 g/kg, FIG. 5
Protocol: C57bl/6 male mice (8 weeks of age) were fasted for 18 hours, and randomly assigned into eight groups with n=6 for each group. Mice were administered per orally with vehicle (20% HPCD) or with 10 mpk EMD 386088. After 30 minutes, a glucose bolus of 3 g/kg was administered orally. Blood was collected in heparinated blood collection tubes at 0 minute (no glucose bolus), 5 minutes, 10 minutes, and 20 minutes after glucose bolus. Plasma samples were obtained via centrifugation at 500×g for 20 minutes and assayed for insulin using an Ultra Sensitive Insulin ELISA kit (Crystal Chem. Inc., Downers Grove, Ill.).

C57bl/6 male mice [2] = assay: plasma glucose levels (hypoglycemia) in fasted mice; assay type: in vivo, mouse; conditions: 10 mpk or 30 mpk oral, 0-120 minutes post-dosing, FIG. 7
Protocol: Plasma glucose levels were determined at 0 minute (right before dosing), and 30, 60, 90, and 120 minutes post-dosing using blood (˜5 μl) collected from tail nick and a glucose meter. Glycemic changes were graphed based on data from 6 mice and given in mean values +/−SEM.

[3] = tested on: db/db mutant diabetic mice; assay: oGTT in diabetic db/db mice; assay type: in vivo, mouse; conditions: 3.3, 10 or 30 mpk oral, glucose bolus 2 gram/kg, FIG. 8
Protocol: as §1, with “(2” for “(3”, “+/−SEM.” for “+/−SEM (FIG. 5 upper left panel).”

rat 5-HT6 receptor = rat 5-HT6 receptor (Rattus norvegicus, UniProt P31388); conditions: cited from earlier work
rat 5-HT6 receptor, sequence (P31388 whole entry): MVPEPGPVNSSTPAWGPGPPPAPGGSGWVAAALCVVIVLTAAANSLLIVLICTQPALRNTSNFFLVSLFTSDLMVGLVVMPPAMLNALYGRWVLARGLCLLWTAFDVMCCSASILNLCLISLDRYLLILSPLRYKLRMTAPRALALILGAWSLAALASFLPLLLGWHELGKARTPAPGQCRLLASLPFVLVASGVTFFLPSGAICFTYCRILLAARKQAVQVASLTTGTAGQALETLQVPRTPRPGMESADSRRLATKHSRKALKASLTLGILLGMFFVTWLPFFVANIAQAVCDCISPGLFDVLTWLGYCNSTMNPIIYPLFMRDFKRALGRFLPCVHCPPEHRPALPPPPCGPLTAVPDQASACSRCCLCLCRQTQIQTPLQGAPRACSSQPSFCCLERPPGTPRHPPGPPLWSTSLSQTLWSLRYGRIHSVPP

[4] = target: cloned human 5-HT6 subtype (Homo sapiens, UniProt P50406); conditions: cited from earlier work
cloned human 5-HT6 subtype, sequence (P50406 whole entry): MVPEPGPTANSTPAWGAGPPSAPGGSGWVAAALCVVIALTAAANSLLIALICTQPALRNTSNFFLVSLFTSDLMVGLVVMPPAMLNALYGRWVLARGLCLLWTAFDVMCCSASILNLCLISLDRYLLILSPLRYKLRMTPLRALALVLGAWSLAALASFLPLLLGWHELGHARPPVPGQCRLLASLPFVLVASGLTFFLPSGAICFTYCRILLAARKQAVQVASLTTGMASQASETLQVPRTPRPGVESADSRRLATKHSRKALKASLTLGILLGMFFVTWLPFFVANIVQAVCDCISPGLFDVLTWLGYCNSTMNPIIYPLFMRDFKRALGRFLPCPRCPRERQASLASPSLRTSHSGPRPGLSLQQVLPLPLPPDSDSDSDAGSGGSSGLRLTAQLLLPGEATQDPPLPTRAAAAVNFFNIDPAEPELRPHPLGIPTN

DIO female rats = conditions: cited from earlier work; for cumulative weekly food intake: DIO female rats; for weight-loss versus control: after 28 days of administration, DIO rats
female DIO rat model = conditions: cited from earlier work
5-HT6 receptor = 5-HT6 receptor (Homo sapiens, UniProt P50406); conditions: cited from earlier work
5-HT6 receptor, sequence (P50406 whole entry): as above

[5] = tested on: normal lean and DIO female rats; conditions: cited from earlier work
[6] = 30 mg/kg i.p., daily for 3 days, growing rats; cited from earlier work

In the case of `Cc1[nH]c2ccc(Cl)cc2c1C1=CCNCC1` [Compound A, 5-Chloro-2-methyl-3-(1,2,3,6-tetrahydro-pyridin-4-yl)-1H-indole], the “glucose excursion in oGTT” value (C57/Bl6 mice) is reported as “improved glucose excursion in a dose-dependent fashion”, the “insulin release compared to vehicle” value (C57bl/6 male mice [1]) is reported as “increased insulin release” and the “hypoglycemia (plasma glucose levels) compared to control” value (C57bl/6 male mice [2]) is reported as “did not cause hypoglycemia”. For the same molecule, the “plasma glucose concentration over time in oGTT compared to control” value [3] was “dose dependent decrease in plasma glucose concentration”.

For `CN(C)CCc1c[nH]c2ccc(NS(=O)(=O)c3ccc4c(Cl)cccc4c3)cc12` [Compound E-6837], the “functionality at rat 5-HT6 receptor” value (rat 5-HT6 receptor) is listed as “partial agonist”, the “functionality at cloned human 5-HT6 subtype” value [4] is listed as “full agonist” and the “cumulative weekly food intake” value (DIO female rats) is listed as “significantly decreased consumption during the first, second and third weeks of treatment”. The weight-loss versus control (DIO female rats) was 15.7%, the “body composition of weight-loss” value (DIO female rats; rat, in vivo) was “selective reduction in body fat with no changes in either water or protein content” and the “food intake and adiposity” value (female DIO rat model) was “reduce food intake and adiposity”.

For `COc1cc(Cl)cc(C(C)Nc2cc(N3CCNCC3)ccc2S(C)(=O)=O)c1OC.Cl` (centres unmarked) [PRX-07034], the Ki (5-HT6 receptor) is given as 4 nM, the “food intake and adiposity” value (female DIO rat model) is given as “reduce food intake and adiposity” and the food intake ([5]; acute studies, normal lean and DIO female rats) is given as “inhibited food intake”. The aversive effect ([5]; rat, in vivo) was “no aversive effect”.

In the case of `CNc1cc(NS(=O)(=O)c2ccc(N)cc2)nc(NC)n1` [Ro 04-6790], the body weight-gain [6] is listed as “significantly attenuated body weight-gain”.

For `CC(C)CC(N(C)C)C1(c2ccc(Cl)cc2)CCC1` (centres unmarked) [sibutramine], the “cumulative weekly food intake” value (DIO female rats) is given as “significantly reduced food intake only during the first week” and the weight-loss versus control (DIO female rats) is given as 11.0%.
